In publication PMC7011792 (Journal of Enzyme Inhibition and Medicinal Chemistry, 2017):
Where two headings read alike, the source gives them in different places.

Experiments:
ICR mice [1] = experiment: Morris water maze test, scopolamine-induced cognitive impairment
huBuChE = biological target: T1, huBuChE (Homo sapiens, UniProt P06276); experiment: Kinetic study of huBuChE inhibition (Lineweaver-Burk, Michaelis-Menten); format: biochemical; details: Lineweaver–Burk plots, 1, 2, 4, 10 nM
T1 construct: purchased Sigma-Aldrich B4186
Procedure: Kinetic studies were performed according to methods reported previously. The concentrations of the substrate ATC or BTC were prepared as 25, 50, 90, 150, 226, and 452 µM. Different concentrations of compound 19 with 0, 1, 2, 4, 10 nM, were also prepared by stock solution. For measurement, the enzymatic reaction was extended to 20 min (huAChE and huBuChE) before the determination of the absorption. Graph Pad Prism 5 was applied for data processing. Vmax and Km values of the Michaelis–Menten kinetics were determined by nonlinear regression from substrate-velocity curves, while Lineweaver–Burk plots were fitted by using linear regression method.

Aβ1–42 = biological target: T2, Aβ1–42 (Homo sapiens, UniProt P05067); experiment: Inhibition of self-induced Aβ1–42 aggregation (Thioflavin T assay); format: biochemical; details: compound 25 μM, 24 h, read-out: Inhibitory rate on self-induced Aβ1-42 aggregation
T2 construct: aliquots of 2.0 µL of Aβ1–42 (AS-64129–05 Anaspec Inc.); purchased Anaspec Inc. AS-64129–05
Procedure: Inhibitory effects of the compounds on self-induced Aβ1–42 aggregation were evaluated using a Thioflavin T (ThT)-(T3516, Sigma-Aldrich, St. Louis, MO) binding assay according to the previously reported method. […] The Aβ1–42 and the test sample solutions were incubated for 24 h at the room temperature.
The inhibitory rate of Aβ1–42 self-induced aggregation was calculated according to the following equation: (1-IFi/IFc) × 100%. IFi and IFc were the fluorescence intensities in the presence and absence of inhibitors, respectively, after subtracting the background fluorescence of the 5 mM Thioflavin T solution. Each measurement was repeated in triplicate. The inhibitory rate of the test compound was shown in mean ± SD.

ICR mice [2] = system: ICR mice
Procedure: The activity of AST and ALT, two indicators of liver damage, was determined using corresponding assay kit (EF551 and EF550 for ALT, EH027, and EF548 for AST, Wako, Japan).
One hour after the collection of retrobulbar blood, mice were sacrificed and livers were harvested for morphological studies by using immunohistochemical method. Two 3 mm sections of each liver extending from the hilus to the margin of the left lateral lobe were isolated by Ultra-Thin Semiautomatic Microtome (Leica RM2245, Germany) and immediately placed in 10% buffered formaldehyde, fixed for two days, and embedded together in one paraffin block by using Paraffin Embedding Station (Leica EG1150H, Germany). Subsequently, 5 µm sections were prepared from these paraffin blocks. They were deparaffinated and stained with hematoxylin and eosin or by means of the periodic acid-Schiff procedure for glycogen.

[3] = biological target: T3, AChE (EC 3.1.1.7) from human (Homo sapiens, UniProt P22303); experiment: Human AChE inhibition, Ellman's method; format: biochemical
T3 construct: purchased Sigma-Aldrich C1682
Procedure: (§1) AChE (EC 3.1.1.7, Type VI-S, from electric eel, C3389; from human, C1682) and BuChE (EC 3.1.1.8, from equine serum, C0663; from human, B4186), 5,5'-dithiobis (2-nitrobenzoic acid) (DTNB, D218200), acetylthiocholine iodide (ATC, A5751), and butyrylthiocholine iodide (BTC, B3253) were obtained from Sigma-Aldrich (St. Louis, MO).
(§2) The inhibitory effects of the synthesised compounds in this paper were evaluated according to our previously reported method. Briefly, AChE/BuChE stock solution was diluted to give 2.5 units/mL (for eeAChE, eqBuChE, and huAChE) or 0.5 units/mL for huBuChE. ATC/BTC iodide solution (0.075 M) was prepared in deionised water. DTNB solution (0.01 M) was prepared using water containing 0.15% (w/v) sodium bicarbonate. The assay buffer was prepared as follows: potassium dihydrogen phosphate (1.36 g, 10 mmol) was dissolved in 100 ml of water. The pH of the solution was then adjusted to 8.0 ± 0.1 with KOH. Stock solutions of the test samples were dissolved in ethanol to give a final concentration of 10^−4 M when diluted to the final volume of 3.32 ml. For each compound, a dilution series of at least five different concentrations (normally 10^−5–10^−9 M) were prepared.
(§3) For measurement, a cuvette containing 3.0 ml of phosphate buffer, 100 µL of AChE or BuChE, 100 µL of DTNB, and 100 µL of the test compound solution were added in sequence. The reaction was initiated after adding 20 µL of ATC or BTC, and the solution was mixed immediately. Two minutes (eeAChE and eqBuChE) or 15 min (huAChE and huBuChE) after ATC or BTC addition, the absorption was measured at 25 °C (eeAChE and eqBuChE) or 37 °C (huAChE and huBuChE) at 412 nm, using a Shimadzu 160 spectrophotometer. For the reference value, 100 µL of water replaced the test compound solution. For the blank control, additionally 100 µL of water replaced the enzyme solution. The measurement for each concentration was assayed in triplicate. GraphPad Prism 5 was used for data processing. The inhibition curve was fitted by plotting percentage enzyme activity (100% for the reference) versus logarithm of test compound concentration. The IC50 values were calculated according to the curve, and the data were shown in mean ± SEM.

[4] = biological target: T4, BuChE (EC 3.1.1.8) from human (Homo sapiens, UniProt P06276); experiment: Human BuChE inhibition, Ellman's method; format: biochemical; details: huBuChE; mean ± SEM
T4 construct: purchased Sigma-Aldrich B4186
Procedure: as §1, §2
as §3, with “The inhibition curve was fitted by plotting percentage enzyme activity (100% for the reference) versus logarithm of test compound concentration.” left out

[5] = 22 h after ig administration, 151.5 µmol/kg, mice serum, n = 6
[6] = 36 h after ig administration, 151.5 µmol/kg, mice serum, n = 6

T3 sequence (P22303 32-614): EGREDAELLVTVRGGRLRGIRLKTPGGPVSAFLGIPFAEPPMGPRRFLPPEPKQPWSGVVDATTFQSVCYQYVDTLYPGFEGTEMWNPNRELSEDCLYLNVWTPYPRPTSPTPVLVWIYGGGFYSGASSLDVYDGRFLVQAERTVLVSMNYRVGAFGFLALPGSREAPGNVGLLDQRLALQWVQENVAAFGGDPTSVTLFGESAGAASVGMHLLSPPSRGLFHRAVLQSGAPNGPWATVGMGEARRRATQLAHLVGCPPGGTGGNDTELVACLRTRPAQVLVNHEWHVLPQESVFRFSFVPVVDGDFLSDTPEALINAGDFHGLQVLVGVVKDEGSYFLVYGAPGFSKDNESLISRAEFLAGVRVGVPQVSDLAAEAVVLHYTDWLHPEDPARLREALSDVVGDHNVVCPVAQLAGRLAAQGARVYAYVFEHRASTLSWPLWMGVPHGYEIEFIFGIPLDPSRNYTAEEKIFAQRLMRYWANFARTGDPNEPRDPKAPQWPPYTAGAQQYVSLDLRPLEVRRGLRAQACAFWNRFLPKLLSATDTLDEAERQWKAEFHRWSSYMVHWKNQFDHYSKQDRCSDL
T4 sequence (P06276 29-602): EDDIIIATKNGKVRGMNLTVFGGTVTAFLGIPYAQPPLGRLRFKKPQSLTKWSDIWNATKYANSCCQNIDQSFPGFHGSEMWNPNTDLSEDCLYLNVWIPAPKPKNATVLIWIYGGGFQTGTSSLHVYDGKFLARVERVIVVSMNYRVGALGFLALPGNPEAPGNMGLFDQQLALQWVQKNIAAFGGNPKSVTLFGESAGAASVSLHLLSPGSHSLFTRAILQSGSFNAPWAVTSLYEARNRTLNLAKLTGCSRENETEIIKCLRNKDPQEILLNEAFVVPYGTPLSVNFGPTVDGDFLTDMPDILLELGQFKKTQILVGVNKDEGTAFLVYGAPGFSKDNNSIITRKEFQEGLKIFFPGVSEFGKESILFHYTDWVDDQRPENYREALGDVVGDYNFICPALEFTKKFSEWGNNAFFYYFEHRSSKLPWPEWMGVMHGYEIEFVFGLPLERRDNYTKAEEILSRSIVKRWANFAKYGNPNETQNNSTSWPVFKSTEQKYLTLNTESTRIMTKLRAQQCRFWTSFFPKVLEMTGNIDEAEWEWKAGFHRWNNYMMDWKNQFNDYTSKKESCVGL
T1 sequence (P06276 29-602): as above
T2 sequence (P05067 672-713): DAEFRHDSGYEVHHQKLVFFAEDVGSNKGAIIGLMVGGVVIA

O=C(/C=C/c1ccc([N+](=O)[O-])cc1)NCCCCCCNc1c2c(nc3ccccc13)CCCC2 [Compound 19, (E)-3-(4-nitrophenyl)-N-(6-((1,2,3,4-tetrahydroacridin-9-yl)amino)hexyl)acrylamide]
Latency to target (second), Day 5 (ICR mice [1]; learning and training, Day 5, oral, plus scopolamine, ICR mice): 54.1 ± 8.9 s | Latency to target (second), Day 6 (ICR mice [1]; learning and training, Day 6, oral, plus scopolamine, ICR mice): 36.5 ± 4.2 s | Latency to target (second), Day 7 (ICR mice [1]; learning and training, Day 7, oral, plus scopolamine, ICR mice): 36.6 ± 4.3 s | Latency to target (second), Day 8 (ICR mice [1]; learning and training, Day 8, oral, plus scopolamine, ICR mice): 35.2 ± 4.7 s | Latency to target (second), Day 9 (ICR mice [1]; learning and training, Day 9, oral, plus scopolamine, ICR mice): 26.1 ± 1.4 s | Latency to Target (ICR mice [1]; probe trial, oral administration plus scopolamine (1 mg/kg ip), ICR mice, mean ± SEM, n = 6): 25.0 ± 1.5 s | trajectory in the Morris water maze test (ICR mice [1]; scopolamine-impaired ICR mice, compared to tacrine group): much shortened distances as compared to tacrine group | type of inhibition on huBuChE (huBuChE): mixed-type inhibition | inhibition at 25 µM (Aβ1–42): 31.8% | AST (U/L) (ICR mice [2]; 8 h after ig administration, 151.5 µmol/kg, mice serum, n = 6): 119.6 ± 10.8 U/L | ALT (U/L) (ICR mice [2]; [5]): 44.4 ± 3.9 U/L | AST (U/L) (ICR mice [2]; [5]): 130.6 ± 8.2 U/L | ALT (U/L) (ICR mice [2]; [6]): 40.2 ± 2.5 U/L | AST (U/L) (ICR mice [2]; [6]): 133.9 ± 13.5 U/L | ALT (U/L) (ICR mice [2]; mouse, in vivo): 36.0 ± 2.9 U/L | morphologic changes in liver (ICR mice [2]; mouse, in vivo): did not cause remarkable morphologic changes in liver | IC50 ([3]; huAChE, mean ± SEM): 10.2 nM | Selectivity index (SI) = BuChE IC50/AChE IC50, human enzymes ([3]; huBuChE IC50 / huAChE IC50): 0.6 | IC50 [4]: 6.3 nM
